The target in data set [1] is T1, Interleukin-17A (Homo sapiens, UniProt Q16552).
T1 sequence (Q16552 whole entry): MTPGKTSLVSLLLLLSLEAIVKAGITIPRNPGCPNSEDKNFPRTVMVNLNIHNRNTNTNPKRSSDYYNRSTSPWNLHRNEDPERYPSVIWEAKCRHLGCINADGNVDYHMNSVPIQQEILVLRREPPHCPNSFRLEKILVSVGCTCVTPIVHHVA
The data set is described as follows: Binding affinity to human IL-17A assessed as dissociation constant in PBS-T measured after 60 mins by Biolayer interferometry.

Data set [2] in a line: Stability of the compound in 50% human serum assessed as compound decomposition incubated for 24 hrs by SDS-PAGE analysis.
The target of data set [3] is T1, Interleukin-17A. The data set is described as follows: Binding affinity to biotinylated human IL-17A by SPR analysis.
The target in data set [4] is T2, Interleukin-17A (Mus musculus) (UniProt Q62386).
T2 sequence (whole entry): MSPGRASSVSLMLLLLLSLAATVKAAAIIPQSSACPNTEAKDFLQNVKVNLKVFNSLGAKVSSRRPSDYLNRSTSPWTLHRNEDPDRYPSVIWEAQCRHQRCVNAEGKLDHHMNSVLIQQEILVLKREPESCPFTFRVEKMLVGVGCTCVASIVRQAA
The data set can be described thus: Binding affinity to mouse IL-17A.

For data set [5], the target named is T3, Interleukin-17F (Homo sapiens) (UniProt Q96PD4).
T3 sequence (whole entry): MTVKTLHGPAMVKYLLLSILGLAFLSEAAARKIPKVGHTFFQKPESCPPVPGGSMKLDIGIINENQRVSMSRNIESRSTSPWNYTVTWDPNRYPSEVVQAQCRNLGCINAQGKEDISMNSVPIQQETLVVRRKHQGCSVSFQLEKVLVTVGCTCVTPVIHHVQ
The data set is described as follows: Binding affinity to human IL-17F.

Activity calls are given as the source filed them. The calls are words filed in the database; no cut-off is given here. *1 amine or outer side, *2 acyl side, *3 side chain or, on linkers, in order; H or OH if unused. Where a SMILES comes first, the peptide text is derived from it. Bridges are numbered along the chain shown (N, C = ends). oXylylene = c1ccc(C[*:2])c(C[*:1])c1

For `CC(C)C[C@H](NC(=O)[C@H](CCC(=O)O)NC(=O)[C@@H](N)CS)C(=O)N[C@@H](CC(C)C)C(=O)N[C@H](C(=O)N[C@@H](Cc1ccccc1)C(=O)N[C@@H](C)C(=O)NCC(=O)N[C@@H](Cc1ccc(O)cc1)C(=O)N1CCC[C@H]1C(=O)N[C@H](C(=O)N[C@@H](Cc1ccc(O)cc1)C(=O)N[C@@H](CS)C(=O)O)C(C)C)[C@@H](C)O` (H-CELLTFAGYPVYC-OH), the Kd result at Interleukin-17A [1] is listed as “Not Active”.

`CC(C)C[C@@H]1NC(=O)[C@H](Cc2ccccc2)NC(=O)[C@H]([C@@H](C)O)NC(=O)[C@H](CC(C)C)NC(=O)[C@H](CC(C)C)NC(=O)[C@H](CCC(=O)O)NC(=O)[C@@H](N)CSCc2ccccc2CSC[C@@H](C(=O)O)NC(=O)[C@H](Cc2ccc(O)cc2)NC(=O)[C@H](C(C)C)NC(=O)[C@@H]2CCCN2C(=O)[C@H](Cc2ccc(O)cc2)NC(=O)CNC1=O` (H-CELLTFLGYPVYC-OH; linker 1-13 via oXylylene): the metabolised at 24 h in data set [2] is 30.5%.

In the case of `CC(C)C[C@H](NC(=O)[C@H](C)NC(=O)[C@@H](NC(=O)[C@H](CC(C)C)NC(=O)[C@H](CC(C)C)NC(=O)[C@H](CCC(=O)O)NC(=O)[C@@H](N)CS)[C@@H](C)O)C(=O)NCC(=O)N[C@@H](Cc1ccc(O)cc1)C(=O)N1CCC[C@H]1C(=O)N[C@H](C(=O)N[C@@H](Cc1ccc(O)cc1)C(=O)N[C@@H](CS)C(=O)O)C(C)C` (H-CELLTALGYPVYC-OH), the Kd entry at Interleukin-17A [1] was “Not Active”.

For the compound `CC(C)C[C@@H]1NC(=O)[C@H](Cc2ccccc2)NC(=O)[C@H]([C@@H](C)O)NC(=O)[C@H](CC(C)C)NC(=O)[C@H](CC(C)C)NC(=O)[C@H](CCC(=O)O)NC(=O)[C@@H](NC(=O)[C@H](CO)NC(=O)CN)CSSC[C@@H](C(=O)NCC(=O)NCC(=O)NCC(=O)N[C@@H](CO)C(=O)N[C@@H](Cc2cnc[nH]2)C(=O)N[C@@H](Cc2cnc[nH]2)C(=O)N[C@@H](Cc2cnc[nH]2)C(=O)N[C@@H](Cc2cnc[nH]2)C(=O)N[C@@H](Cc2cnc[nH]2)C(=O)N[C@@H](Cc2cnc[nH]2)C(=O)O)NC(=O)[C@H](Cc2ccc(O)cc2)NC(=O)[C@H](C(C)C)NC(=O)[C@@H]2CCCN2C(=O)[C@H](Cc2ccc(O)cc2)NC(=O)CNC1=O` (H-GSCELLTFLGYPVYCGGGSHHHHHH-OH; disulfide 3-15), at Interleukin-17A [3], the Kd result was “Not Active”.

As for `CC(C)C[C@H](NC(=O)[C@H](Cc1ccccc1)NC(=O)[C@@H](NC(=O)[C@H](CC(C)C)NC(=O)[C@H](CC(C)C)NC(=O)[C@H](CCC(=O)O)NC(=O)[C@@H](N)CS)[C@@H](C)O)C(=O)NCC(=O)N[C@@H](Cc1ccc(O)cc1)C(=O)N1CCC[C@H]1C(=O)N[C@H](C(=O)N[C@@H](Cc1ccc(O)cc1)C(=O)N[C@@H](CS)C(=O)O)C(C)C` (H-CELLTFLGYPVYC-OH), the metabolised at 24 h in data set [2] worked out at 9.5%. The outcome in data set [4] was Active. Moreover, the result in data set [5] was inactive.

The record behind these values is ChEMBL document CHEMBL4825760, “Interleukin-17A Peptide Aptamers with an Unexpected Binding Moiety Selected by cDNA Display under Heterogenous Conditions” (ACS Med Chem Lett, 2021).
